From patent US12344610B2, “APOL1 inhibitors and methods of use” (Maze Therapeutics, Inc., priority 2022, dated 2025)

Assays:
Type in all cases: cell-based
[1] = test system: HEK293 clonal cell line overexpressing APOL1 G1; test: APOL1 G1 HEK293 cell rescue assay (Example B3); conditions: geometric mean of at least 2 runs, † = single run, ¥ = concentration at 50% rescue estimated (no sigmoidal curve)
Procedure: Compounds were also assayed in a HEK293 clonal cell line overexpressing APOL1 G1 by a method similar to that shown in Example B2 above.
Unless otherwise specified, EC50 values are reported as the geometric mean of at least 2 assay runs on separate days. Each run represents the average of a technical replicate, where each compound was assayed twice in the same plate. A superscript † symbol indicates a value from the average of a technical replicate from a single assay run, where each compound was assayed twice in the same plate. A ¥ symbol represents compound concentration at 50% rescue estimated due to lack of sigmoidal curve preventing curve fitting. Compounds in Table 41 are referred to by the corresponding Compound Number in Table 1, which is also referred to in the synthetic examples. When one or more of the numbered compounds are identified by stereochemistry (for example, (R)- or (S)-), the specific stereoisomer for which data is provided in Table 41 may be identified by the elution order of such compound as described in the synthetic examples. Absolute stereochemistry of such compounds may be identified by methods known in the art. For Table 41 below, n/a represents “not available”.
Rescue EC50 values reported in Table 41 below represent the half-maximal effective concentration for reversal of cell death caused by overexpression of APOL1.

[2] = test system: HEK293 cells overexpressing APOL1 G2; test: APOL1 G2 HEK293 cell rescue assay (reversal of cell death caused by overexpression of APOL1); conditions: geometric mean of at least 2 assay runs, † = single assay run
Procedure: Unless otherwise specified, EC50 values are reported as the geometric mean of at least 2 assay runs on separate days. Each run represents the average of a technical replicate, where each compound was assayed twice in the same plate. A superscript t symbol indicates a value from the average of a technical replicate from a single assay run, where each compound was assayed twice in the same plate. Compounds in Table 40 are referred to by the corresponding Compound Number in Table 1, which is also referred to in the synthetic examples. When one or more of the numbered compounds are identified by stereochemistry (for example, (R)- or (S)-), the specific stereoisomer for which data is provided in Table 40 may be identified by the elution order of such compound as described in the synthetic examples. Absolute stereochemistry of such compounds may be identified by methods known in the art. For Table 40 below, n/a represents “not available”.
Rescue EC50 values reported in Table 40 below represent the half-maximal effective concentration for reversal of cell death caused by overexpression of APOL1.

APOL1 G2 = molecular target: T1, APOL1 G2 (Homo sapiens, UniProt O14791, DEL388-389); test: APOL1-mediated calcium transport (calcium influx) assay, HEK T-REx/GCaMP6f/APOL1 G2 K6.3 cells, FLIPR TETRA; conditions: prevention of calcium influx; geometric mean of at least 2 assay runs; † = average of a technical replicate from a single assay run
T1 construct: expressed in transfected cells; host or cells: HEK293 T-REx clonal line stably expressing GCaMP6f (HEK T-REx/GCaMP6f/APOL1 G2 K6.3), doxycycline induced
T1 sequence (O14791 with tags, fused parts or gaps DEL388-389): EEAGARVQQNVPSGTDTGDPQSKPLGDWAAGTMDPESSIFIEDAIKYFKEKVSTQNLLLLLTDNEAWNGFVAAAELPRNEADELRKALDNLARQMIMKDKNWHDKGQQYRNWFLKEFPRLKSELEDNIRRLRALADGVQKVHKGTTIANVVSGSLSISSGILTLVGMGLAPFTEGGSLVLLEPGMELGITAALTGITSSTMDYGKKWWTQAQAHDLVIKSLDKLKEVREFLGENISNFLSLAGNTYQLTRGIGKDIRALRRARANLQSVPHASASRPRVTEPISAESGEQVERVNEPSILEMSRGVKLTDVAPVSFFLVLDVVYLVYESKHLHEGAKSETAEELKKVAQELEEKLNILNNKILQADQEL
Procedure: A HEK293 clonal cell line was generated to stably express GCaMP6f, a genetically encoded calcium indicator, and inducibly express APOL1 G2 (HEK T-REx/GCaMP6f/APOL1 G2 K6.3). Cells were maintained in the following standard complete medium: DMEM with 4.5 g/L glucose and sodium pyruvate (BioWhittaker, Lonza, BE12-614F), supplemented with 10% FBS Performance Plus (Gibco, 16000044), 1% penicillin-streptomycin (BioWhittaker, DE17-602E), 2 mM ultraglutamine-1 (BioWhittaker cat. BE 17-605/U1), 50 μg/mL Zeocin (InvivoGen, ant-zn), 2.5 μg/mL Blasticidin (InvivoGen, ant-bl-5), and 25 μg/mL Hygromycin (InvivoGen, ant-hg). Standard propagation conditions consisted of plating 9×10^6, 4×10^6, 2×10^6 cells in a T225 flasks to be processed after 2, 3, or 4 days, respectively.
A source plate was generated containing 20 serially diluted compounds in DMSO (duplicate 8-point dose response). Next, 0.8 μL of compounds were transferred from the source plate to a destination plate prefilled with 79.2 μL of Ca^2+ free Tyrode's buffer (130 mM NaCl, 5 mM KCl, 1 mM MgCl2, 5 mM NaHCO3, 20 mM HEPES at pH 7.4). The destination plate was placed on a plate shaker (5 seconds at 2000 rpm) to mix. […] All transfer and mixing steps were conducted with an CyBi®-Well dispenser.
Cells were split by gently washing with DPBS (Euroclone, ECB4004L), followed by a 5-minute incubation (humidified, 37° C. with 5% CO2) with trypsin-EDTA solution (Euroclone, ECB3052D). Detached cells were diluted with standard complete medium without selective agents, counted, and plated in a 384 MTP microplate (GR4332CPL, Twin Helix) (10,000 cells/well in 25 μl/well) using a MATRIX WellMate dispenser. Plates were placed into a humidified incubator (37° C. with 5% CO2) overnight. The following day, 20 μL of doxycycline (Sigma, D9891) at 20 ng/mL in standard complete medium was added to cells with a CyBi® Drop dispenser to induce APOL1 G2 expression. After a 6-hour incubation (humidified, 37° C. with 5% CO2), cells were washed 3 times with Ca^2+ free Tyrode's Buffer (130 mM NaCl, 5 mM KCl, 1 mM MgCl2, 5 mM NaHCO3, 20 mM HEPES at pH 7.4) using a BIOTEK Microplate washer, such that 10 μL of buffer remained in each well after the final wash. Assay plates were then stored at room temperature for 10 minutes. Next, 10 μL of diluted compounds were transferred to the assay plate from the 2× compound plate using a CyBi®-Well dispenser. Compound incubation was then carried out at room temperature for 10 minutes. The assay plate was transferred to the FLIPR^TETRA and 20 μL of 10 mM Ca^2+ (final concentration=5 mM) Tyrode's buffer was injected.
Unless otherwise specified, AC50 and values are reported as the geometric mean of at least 2 assay runs on separate days. Each run represents the average of a technical replicate, where each compound was assayed twice in the same plate. A superscript t symbol indicates a value from the average of a technical replicate from a single assay run, where each compound was assayed twice in the same plate.
The AC50 values in Table 39 below reflect the compound's ability to prevent calcium influx by inhibiting APOL1. […] Compounds in Table 39 are referred to by the corresponding Compound Number in Table 1, which is also referred to in the synthetic examples. When one or more of the numbered compounds are identified by stereochemistry (for example, (R)- or (S)-), the specific stereoisomer for which data is provided in Table 39 may be identified by the elution order of such compound as described in the synthetic examples. For example, Compounds 39 and 40 are associated with Step 5 of Example 13, where Compound 39 is the first eluting enantiomer, and Compound 40 is the second eluting enantiomer in the chiral separation of Compound 38. For Table 39 below, n/a represents “not available”.

[3] = Homo sapiens, HEK293, HEK293 clonal line overexpressing APOL1 G1
[4] = Homo sapiens, HEK293, HEK293 overexpressing APOL1 G2

SMILES	EC50 [1, 3]	EC50 [2, 4]	AC50 (APOL1 G2)	EC50 ([1]; HEK293 clonal line overexpressing APOL1 G1)	EC50 ([2]; HEK293 overexpressing APOL1 G2)
CS(=O)(=O)N1Cc2ccc(OCCN3CCC4(CC3)C(=O)Nc3ccc(Cl)cc34)cc2C1 [Compound 54, 5-chloro-1′-{2-[(2-methanesulfonyl-2,3-dihydro-1H-isoindol-5-yl)oxy]ethyl}-1,2-dihydrospiro[indole-3,4′-piperidin]-2-one]	386 nM	90.3 nM	804 nM		
[2H]C([2H])([2H])N1C(=O)C2(CCN(CCOc3cnc(C4(CO)CC4)nc3)CC2)c2cc(Cl)ccc21 [Compound 420, 5-chloro-1′-[2-({2-[1-(hydroxymethyl)cyclopropyl]pyrimidin-5-yl}oxy)ethyl]-1-(^2H3)methyl-1,2-dihydrospiro[indole-3,4′-piperidin]-2-one]	144 nM	64.7 nM	892 nM		
CC(COc1ccc(S(C)(=O)=O)cc1)N1CCC2(CC1)C(=O)Nc1ccccc12 (stereo not drawn) [Compound 28, 1′-(1-(4-(methylsulfonyl)phenoxy)propan-2-yl)spiro[indoline-3,4′-piperidin]-2-one]	655 nM	799 nM	< 434 nM		
N#Cc1ccc2c(c1)C1(CCN(CCOc3ccc4c(c3)CNC4=O)CC1)C(=O)N2 [Compound 170, 2-oxo-1′-{2-[(1-oxo-2,3-dihydro-1H-isoindol-5-yl)oxy]ethyl}-1,2-dihydrospiro[indole-3,4′-piperidine]-5-carbonitrile]	~2300 nM	803 nM	1310 nM		
[2H]C([2H])([2H])N1C(=O)C2(CCN(CCOc3cnc(C4(S(C)(=O)=O)CC4)nc3)CC2)c2cc(Cl)ccc21 [Compound 424, 5-chloro-1′-(2-{[2-(1-methanesulfonylcyclopropyl)pyrimidin-5-yl]oxy}ethyl)-1-(^2H3)methyl-1,2-dihydrospiro[indole-3,4′-piperidin]-2-one]	112 nM	50.2 nM	895 nM		
O=C1OC2(COC2)c2ccc(OCCN3CCC4(CC3)C(=O)Nc3ccc(Cl)cc34)cc21 [Compound 179, 5-chloro-1′-(2-{3-oxo-3H-spiro[2-benzofuran-1,3′-oxetan]-5-yloxy}ethyl)-1,2-dihydrospiro[indole-3,4′-piperidin]-2-one]	484 nM	164 nM	655 nM		
CC1(O)CN(c2ncc(OCCN3CCC4(CC3)C(=O)Nc3ccc(C#N)cc34)cc2C(F)(F)F)C1 [Compound 431, 1′-(2-{[6-(3-hydroxy-3-methylazetidin-1-yl)-5-(trifluoromethyl)pyridin-3-yl]oxy}ethyl)-2-oxo-1,2-dihydrospiro[indole-3,4′-piperidine]-5-carbonitrile]	37 nM	18.7 nM	4870 nM		
CC(c1ccc(OCCN2CCC3(CC2)C(=O)Nc2ccc(Cl)cc23)cc1)S(C)(=O)=O (single isomer, unassigned) [Compound 40, 5-chloro-1′-(2-{4-[(1R) or (1S)-1-methanesulfonylethyl]phenoxy}ethyl)-1,2-dihydrospiro[indole-3,4′-piperidin]-2-one]			657 nM	294 nM	72 nM
CS(=O)(=O)c1ccc(OCCN2CCC3(CC2)C(=O)Nc2ccc(Cl)cc23)cc1C1COC1 [Compound 223, 5-chloro-1′-{2-[4-methanesulfonyl-3-(oxetan-3-yl)phenoxy]ethyl}-1,2-dihydrospiro[indole-3,4′-piperidin]-2-one]	326 nM	97.8 nM	311 nM		
C[C@]1(O)C[C@@H](n2c(=O)cc(C(F)(F)F)c3cc(OCCN4CCC5(CC4)C(=O)Nc4ccc(C(F)F)cc45)cnc32)C1 [Compound 342, 5-(difluoromethyl)-1′-[2-({7-oxo-8-[(cis)-3-hydroxy-3-methylcyclobutyl]-5-(trifluoromethyl)-7,8-dihydro-1,8-naphthyridin-3-yl}oxy)ethyl]-1,2-dihydrospiro[indole-3,4′-piperidin]-2-one]		90.2 nM	780 nM		
C[C@]1(O)C[C@@H](n2c(=O)cc(C(F)(F)F)c3cc(OCCN4CCC5(CC4)C(=O)Nc4ccc(Cl)cc45)cnc32)C1 [Compound 341, 5-chloro-1′-[2-({7-oxo-8-[(cis)-3-hydroxy-3-methylcyclobutyl]-5-(trifluoromethyl)-7,8-dihydro-1,8-naphthyridin-3-yl}oxy)ethyl]-1,2-dihydrospiro[indole-3,4′-piperidin]-2-one]		41.5 nM	1060 nM		
C[C@]1(O)C[C@@H](n2cnc3cc(OCCN4CCC5(CC4)C(=O)Nc4ccc(C#N)cc45)cc(F)c32)C1 [Compound 455, 1′-(2-((7-fluoro-1-((cis)-3-hydroxy-3-methylcyclobutyl)-1H-benzo[d]imidazol-5-yl)oxy)ethyl)-2-oxospiro[indoline-3,4′-piperidine]-5-carbonitrile]		75.3 nM	1250 nM		
